Patent publication US20100016400A1, “AZABICYCLIC MUSCARINIC RECEPTOR ANTAGONISTS” (priority 2004, published 2010)

CNCC1C2CN(C(=O)C(O)(c3ccccc3)C(F)(F)F)CC12 (stereo not drawn)
melting point: 110 to 113 °C

CNCC1C2CN(C(=O)C(O)(c3ccc(C)cc3)C(F)(F)F)CC12 (stereo not drawn)
melting point: 191 to 194 °C

CN(C)C1C2CN(C(=O)C(O)(c3ccccc3)C3CCCCC3)CC21 (stereo not drawn)
melting point: 71.3 to 72.7 °C

CNC1C2CN(C(=O)C(O)(c3ccccc3)C(F)(F)F)CC21 (stereo not drawn)
melting point: 179.7 to 182 °C

CNC1C2CN(C(=O)C(O)(c3ccc(C)cc3)C(F)(F)F)CC21 (stereo not drawn)
melting point: 178 to 179.4 °C

CNCC1C2CN(C(=O)C(O)(c3ccccc3)C3CCCCC3)CC12 (stereo not drawn)
melting point: 140 to 142 °C
